Source: patent publication US12187723B2 (BRISTOL-MYERS SQUIBB COMPANY, priority 2019, dated 2025)
pIC50: −log10 of the molar value.

Target: T1, human TLR8 (Homo sapiens, UniProt Q9NR97)
T1 construct: host or cells: HEK-Blue cells
T1 sequence (Q9NR97 27-1041): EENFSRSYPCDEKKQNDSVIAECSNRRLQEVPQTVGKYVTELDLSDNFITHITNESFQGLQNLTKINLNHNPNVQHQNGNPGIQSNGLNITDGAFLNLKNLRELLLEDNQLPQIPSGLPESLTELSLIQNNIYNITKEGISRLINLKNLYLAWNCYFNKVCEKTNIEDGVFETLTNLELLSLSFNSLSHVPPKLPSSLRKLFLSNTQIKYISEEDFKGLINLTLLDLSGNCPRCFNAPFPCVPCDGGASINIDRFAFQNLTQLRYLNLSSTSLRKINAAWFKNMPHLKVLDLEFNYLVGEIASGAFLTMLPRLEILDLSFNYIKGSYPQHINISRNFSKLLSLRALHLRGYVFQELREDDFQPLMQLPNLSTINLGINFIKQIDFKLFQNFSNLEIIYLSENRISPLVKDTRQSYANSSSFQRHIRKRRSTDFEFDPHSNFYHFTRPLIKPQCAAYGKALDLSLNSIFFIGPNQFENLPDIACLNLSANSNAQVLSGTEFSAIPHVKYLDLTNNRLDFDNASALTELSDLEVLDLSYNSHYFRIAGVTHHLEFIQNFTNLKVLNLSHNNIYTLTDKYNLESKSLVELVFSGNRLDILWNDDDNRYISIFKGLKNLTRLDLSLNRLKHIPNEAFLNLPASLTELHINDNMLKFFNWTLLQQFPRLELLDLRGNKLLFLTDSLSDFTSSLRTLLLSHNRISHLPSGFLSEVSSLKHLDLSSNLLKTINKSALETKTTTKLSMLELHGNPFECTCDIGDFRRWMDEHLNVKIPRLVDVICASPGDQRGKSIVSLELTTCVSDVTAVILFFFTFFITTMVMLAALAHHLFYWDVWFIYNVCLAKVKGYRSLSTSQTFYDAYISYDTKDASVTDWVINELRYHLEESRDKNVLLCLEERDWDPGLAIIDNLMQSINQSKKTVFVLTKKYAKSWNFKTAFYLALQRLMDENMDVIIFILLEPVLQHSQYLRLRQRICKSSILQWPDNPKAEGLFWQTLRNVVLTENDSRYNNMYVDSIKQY
Assay: TLR8 inhibition reporter assay (HEK-Blue SEAP)
Assay type: cell-based
Conditions: HEK-Blue cells overexpressing human TLR8, R848 15.9 μM, 22 hour incubation
Procedure, shortened: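 Compound treatment: 30 min, RT, 0.05 nM–50 μM final. Agonist: TLR7 gardiquimod 7.5 μM; TLR8 R848 15.9 μM; TLR9 ODN2006 5 nM. Incubation 22 h, 37 °C, 5% CO2. Readout SEAP, HEK-Blue Detection.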

SMILES | pIC50
Cc1cc2c(cc1-c1cc(C)c3ncnn3c1)[nH]c(=O)n2[C@H]1CCCN(CC(=O)N(C)C)C1 [Example 93, (S)—N,N-dimethyl-2-(3-(6-methyl-5-(8-methyl-[1,2,4]triazolo[1,5-a]pyridin-6-yl)-2-oxo-2,3-dihydro-1H-benzo[d]imidazol-1-yl)piperidin-1-yl)acetamide] | 6.98
COc1cc(-c2cc3[nH]c(=O)n([C@H]4CC[C@@H](NCC5CC5)CC4)c3cc2C)cn2ncnc12 [Example 60, 1-((1s,4s)-4-((cyclopropylmethyl)amino)cyclohexyl)-5-(8-methoxy-[1,2,4]triazolo[1,5-a]pyridin-6-yl)-6-methyl-1,3-dihydro-2H-benzo[d]imidazol-2-one] | 8.24
CCC(CC)N1CCC[C@@H](n2c(=O)[nH]c3cc(-c4cc(OC)c5ncnn5c4)c(C)cc32)C1 [Example 67, (R)-5-(8-methoxy-[1,2,4]triazolo[1,5-a]pyridin-6-yl)-6-methyl-1-(1-(pentan-3-yl)piperidin-3-yl)-1,3-dihydro-2H-benzo[d]imidazol-2-one] | 7.28
COc1cc(-c2cc3[nH]c(=O)n([C@H]4CC[C@@H](N(C)C)CC4)c3cc2C)cn2ncnc12 [Example 48, 1-((1s,4s)-4-(dimethylamino)cyclohexyl)-5-(8-methoxy-[1,2,4]triazolo[1,5-a]pyridin-6-yl)-6-methyl-1,3-dihydro-2H-benzo[d]imidazol-2-one] | 8.27
Cc1cc2c(cc1-c1cc(C)c3ncnn3c1)[nH]c(=O)n2[C@@H]1CCCN(CCC(C)(C)C)C1 [Example 44, (R)-1-(1-(3,3-dimethylbutyl)piperidin-3-yl)-6-methyl-5-(8-methyl-[1,2,4]triazolo[1,5-a]pyridin-6-yl)-1,3-dihydro-2H-benzo[d]imidazol-2-one] | 7.31
CCN[C@H]1CC[C@@H](n2c(=O)[nH]c3cc(-c4cc(OC)c5ncnn5c4)c(C)cc32)CC1 [Example 63, 1-((1s,4s)-4-(ethylamino)cyclohexyl)-5-(8-methoxy-[1,2,4]triazolo[1,5-a]pyridin-6-yl)-6-methyl-1,3-dihydro-2H-benzo[d]imidazol-2-one] | 7.67
Cc1cc2c(cc1-c1cc(C)c3ncnn3c1)[nH]c(=O)n2C1CCN(CC(=O)N(C)C)CC1 [Example 89, N,N-dimethyl-2-(4-(6-methyl-5-(8-methyl-[1,2,4]triazolo[1,5-a]pyridin-6-yl)-2-oxo-2,3-dihydro-1H-benzo[d]imidazol-1-yl)piperidin-1-yl)acetamide] | 6.98
COc1cc(-c2cc3[nH]c(=O)n([C@@H]4CCCN(C5CCC5)C4)c3cc2C)cn2ncnc12 [Example 69, (R)-1-(1-cyclobutylpiperidin-3-yl)-5-(8-methoxy-[1,2,4]triazolo[1,5-a]pyridin-6-yl)-6-methyl-1,3-dihydro-2H-benzo[d]imidazol-2-one] | 6.96
COc1cc(-c2ccc3c(c2)[nH]c(=O)n3C2CCN(CC3CCOC3)CC2)cn2ncnc12 (stereo not drawn) [Example 82, 5-(8-methoxy-[1,2,4]triazolo[1,5-a]pyridin-6-yl)-1-(1-((tetrahydrofuran-3-yl)methyl)piperidin-4-yl)-1,3-dihydro-2H-benzo[d]imidazol-2-one] | 5.59
Cc1cc2c(cc1-c1cc(C)c3ncnn3c1)[nH]c(=O)n2[C@@H]1CCCN(CCCC(F)(F)F)C1 [Example 39, (R)-6-methyl-5-(8-methyl-[1,2,4]triazolo[1,5-a]pyridin-6-yl)-1-(1-(4,4,4-trifluorobutyl)piperidin-3-yl)-1,3-dihydro-2H-benzo[d]imidazol-2-one] | 7.31
Cc1cc2c(cc1-c1cc(C)c3ncnn3c1)[nH]c(=O)n2[C@@H]1CCCN(CC2CCCC2)C1 [Example 47, (R)-1-(1-(cyclopentylmethyl)piperidin-3-yl)-6-methyl-5-(8-methyl-[1,2,4]triazolo[1,5-a]pyridin-6-yl)-1,3-dihydro-2H-benzo[d]imidazol-2-one] | 7.48
Cc1cc2c(cc1-c1cc(C)c3ncnn3c1)[nH]c(=O)n2[C@H]1CC[C@@H](NCC(C)(C)C)CC1 [Example 32, 6-methyl-5-(8-methyl-[1,2,4]triazolo[1,5-a]pyridin-6-yl)-1-((1s,4s)-4-(neopentylamino)cyclohexyl)-1,3-dihydro-2H-benzo[d]imidazol-2-one] | 9.21
CNC(=O)CN1CCC(n2c(=O)[nH]c3cc(-c4cc(C)c5ncnn5c4)c(C)cc32)CC1 [Example 88, N-methyl-2-(4-(6-methyl-5-(8-methyl-[1,2,4]triazolo[1,5-a]pyridin-6-yl)-2-oxo-2,3-dihydro-1H-benzo[d]imidazol-1-yl)piperidin-1-yl)acetamide] | 6.94
COc1cc(-c2cc3[nH]c(=O)n([C@H]4CC[C@@H](NC5CCCCC5)CC4)c3cc2C)cn2ncnc12 [Example 62, 1-((1s,4s)-4-(cyclohexylamino)cyclohexyl)-5-(8-methoxy-[1,2,4]triazolo[1,5-a]pyridin-6-yl)-6-methyl-1,3-dihydro-2H-benzo[d]imidazol-2-one] | 8.73
CCCN1CCC[C@@H](n2c(=O)[nH]c3cc(-c4cc(OC)c5ncnn5c4)c(C)cc32)C1 [Example 54, (R)-5-(8-methoxy-[1,2,4]triazolo[1,5-a]pyridin-6-yl)-6-methyl-1-(1-propylpiperidin-3-yl)-1,3-dihydro-2H-benzo[d]imidazol-2-one] | 7.62
Cc1cc2c(cc1-c1cc(C)c3ncnn3c1)[nH]c(=O)n2C1CCN(C(C)C)CC1 [Example 2, 1-(1-isopropylpiperidin-4-yl)-6-methyl-5-(8-methyl-[1,2,4]triazolo[1,5-a]pyridin-6-yl)-1,3-dihydro-2H-benzo[d]imidazol-2-one] | 6.97
COc1cc(-c2cc3[nH]c(=O)n([C@H]4CC[C@@H](NC5CCOCC5)CC4)c3cc2C)cn2ncnc12 [Example 49, 5-(8-methoxy-[1,2,4]triazolo[1,5-a]pyridin-6-yl)-6-methyl-1-((1s,4s)-4-((tetrahydro-2H-pyran-4-yl)amino)cyclohexyl)-1,3-dihydro-2H-benzo[d]imidazol-2-one] | 8.49
COc1cc(-c2ccc3c(c2)[nH]c(=O)n3C2CCN(C3CCOC3)CC2)cn2ncnc12 (stereo not drawn) [Example 81, 5-(8-methoxy-[1,2,4]triazolo[1,5-a]pyridin-6-yl)-1-(1-(tetrahydrofuran-3-yl)piperidin-4-yl)-1,3-dihydro-2H-benzo[d]imidazol-2-one] | < 5.51
CCCN1CCC(n2c(=O)[nH]c3cc(-c4cc(OC)c5ncnn5c4)ccc32)CC1 [Example 76, 5-(8-methoxy-[1,2,4]triazolo[1,5-a]pyridin-6-yl)-1-(1-propylpiperidin-4-yl)-1,3-dihydro-2H-benzo[d]imidazol-2-one] | 6.60
COc1cc(-c2ccc3c(c2)[nH]c(=O)n3C2CCN(CC3CC3)CC2)cn2ncnc12 [Example 79, 1-(1-(cyclopropylmethyl)piperidin-4-yl)-5-(8-methoxy-[1,2,4]triazolo[1,5-a]pyridin-6-yl)-1,3-dihydro-2H-benzo[d]imidazol-2-one] | 5.81
Cc1cc2c(cc1-c1cc(C)c3ncnn3c1)[nH]c(=O)n2[C@@H]1CCCN(CC(C)C)C1 [Example 40, (R)-1-(1-isobutylpiperidin-3-yl)-6-methyl-5-(8-methyl-[1,2,4]triazolo[1,5-a]pyridin-6-yl)-1,3-dihydro-2H-benzo[d]imidazol-2-one] | 7.71
CCCN1CCC[C@@H](n2c(=O)[nH]c3cc(-c4cc(C)c5ncnn5c4)c(C)cc32)C1 [Example 42, (R)-6-methyl-5-(8-methyl-[1,2,4]triazolo[1,5-a]pyridin-6-yl)-1-(1-propylpiperidin-3-yl)-1,3-dihydro-2H-benzo[d]imidazol-2-one] | 7.53
COc1cc(-c2cc3[nH]c(=O)n([C@H]4CC[C@@H](NC(C)C)CC4)c3cc2C)cn2ncnc12 [Example 50, 1-((1s,4s)-4-(isopropylamino)cyclohexyl)-5-(8-methoxy-[1,2,4]triazolo[1,5-a]pyridin-6-yl)-6-methyl-1,3-dihydro-2H-benzo[d]imidazol-2-one] | 8.31
COc1cc(-c2cc3[nH]c(=O)n(C4CCN(CC(=O)N(C)C)CC4)c3cc2C)cn2ncnc12 [Example 86, 2-(4-(5-(8-methoxy-[1,2,4]triazolo[1,5-a]pyridin-6-yl)-6-methyl-2-oxo-2,3-dihydro-1H-benzo[d]imidazol-1-yl)piperidin-1-yl)-N,N-dimethylacetamide] | 6.44
